# Like-named read-outs stand apart in the source and are kept apart here.
# Legend:
# human Gal-1 (hGal-1) = human Gal-1 (hGal-1) (Homo sapiens (Human), UniProt P09382); assay: competitive binding assay: biotinylated hGal-1 binding to microplate-adsorbed asialofetuin (ASF); details: Table 15; read-out: IC50 (Galectin-1 inhibition)
# Summary of the method: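 Biotinylated human Gal-1 (300-1000 ng/mL) competes with serially diluted compound for binding to ASF-coated plates, 3 h at 4° C. Bound protein detected with streptavidin-peroxidase and ABTS substrate (spectrophotometric). IC50 given as mean of several measurements.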
# human Gal-3 (hGal-3) = human Gal-3 (hGal-3) (Homo sapiens (Human), UniProt P17931); assay: competitive binding assay: biotinylated hGal-3 binding to microplate-adsorbed asialofetuin (ASF)
# Chain of human Gal-3 (hGal-3) (P17931 whole entry): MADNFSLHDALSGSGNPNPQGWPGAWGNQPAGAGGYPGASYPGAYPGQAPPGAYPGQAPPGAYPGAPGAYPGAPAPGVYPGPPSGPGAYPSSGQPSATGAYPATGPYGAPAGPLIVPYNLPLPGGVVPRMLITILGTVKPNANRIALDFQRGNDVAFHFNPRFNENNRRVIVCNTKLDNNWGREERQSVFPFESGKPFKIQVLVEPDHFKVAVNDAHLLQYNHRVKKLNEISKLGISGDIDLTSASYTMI
# Summary of the method: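 Peroxidase activity developed with ABTS measures the biotinylated hGal-3 remaining on the asialofetuin-coated surface after competition with test compounds. Incubation ran 3 h at 4 °C, followed by 1 h with streptavidin-peroxidase at 80 ng/mL.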
# [1] = Table 10, 2-OMe-Gal inhibitors, read-out: IC50 (Gal-3 inhibition)
# [2] = Table 5, read-out: IC50 (Gal-3 inhibition)
# [3] = Gal-3 inhibition, binding of biotinylated hGal-3 to ASF, mean values, read-out: IC50
# [4] = Table 9, 2-OMe-Gal inhibitors, read-out: IC50 (Gal-3 inhibition)
# Chain of human Gal-1 (hGal-1) (P09382 whole entry): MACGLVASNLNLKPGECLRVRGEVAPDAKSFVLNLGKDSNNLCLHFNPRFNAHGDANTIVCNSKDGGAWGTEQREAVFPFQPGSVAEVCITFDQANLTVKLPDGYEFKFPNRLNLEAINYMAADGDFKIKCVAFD
Compound,IC50 (human Gal-1 (hGal-1)) [nM],IC50 (human Gal-3 (hGal-3); [1]) [nM],IC50 (human Gal-3 (hGal-3); [2]) [nM],IC50 (human Gal-3 (hGal-3); [3]) [nM],IC50 (human Gal-3 (hGal-3); [4]) [nM]
"CO[C@@H]1[C@@H](n2cc(-c3cc(F)c(F)c(F)c3)nn2)[C@@H](O)[C@@H](CO)O[C@H]1S[C@H](c1nocc1C)C1(O)CCOCC1 [Example 2.41.120R.I., (2R,3R,4S,5R,6S)-2-(Hydroxymethyl)-6-(((R)-(4-hydroxytetrahydro-2H-pyran-4-yl)(4-methylisoxazol-3-yl)methyl)thio)-5-methoxy-4-(4-(3,4,5-trifluorophenyl)-1H-1,2,3-triazol-1-yl)tetrahydro-2H-pyran-3-ol]",500,190,–,–,–
"OC[C@H]1O[C@@H](SC(c2ncccc2C(F)(F)F)C2(O)CCOCC2)[C@H](O)[C@@H](n2cc(-c3cc(F)c(F)c(F)c3)nn2)[C@H]1O (stereo partly drawn) [Example 2.41.125., (2R,3R,4S,5R,6S)-2-(Hydroxymethyl)-6-(((4-hydroxytetrahydro-2H-pyran-4-yl)(3-(trifluoromethyl)pyridin-2-yl)methyl)thio)-4-(4-(3,4,5-trifluorophenyl)-1H-1,2,3-triazol-1-yl)tetrahydro-2H-pyran-3,5-diol]",5700,–,250,–,–
"OC[C@H]1O[C@@H](S[C@H](c2ncccc2C(F)(F)F)C2(O)CCOCC2)[C@H](O)[C@@H](n2cc(-c3cc(F)c(F)c(F)c3)nn2)[C@H]1O [Example 2.41.125R., (2R,3R,4S,5R,6S)-2-(Hydroxymethyl)-6-(((R)-(4-hydroxytetrahydro-2H-pyran-4-yl)(3-(trifluoromethyl)pyridin-2-yl)methyl)thio)-4-(4-(3,4,5-trifluorophenyl)-1H-1,2,3-triazol-1-yl)tetrahydro-2H-pyran-3,5-diol]",130,–,30,–,–
"OC[C@H]1O[C@@H](S[C@@H](c2ncccc2C(F)(F)F)C2(O)CCOCC2)[C@H](O)[C@@H](n2cc(-c3cc(F)c(F)c(F)c3)nn2)[C@H]1O [Example 2.41.125S., (2R,3R,4S,5R,6S)-2-(Hydroxymethyl)-6-(((S)-(4-hydroxytetrahydro-2H-pyran-4-yl)(3-(trifluoromethyl)pyridin-2-yl)methyl)thio)-4-(4-(3,4,5-trifluorophenyl)-1H-1,2,3-triazol-1-yl)tetrahydro-2H-pyran-3,5-diol]",7470,–,1830,–,–
"Cc1cccnc1C(S[C@@H]1O[C@H](CO)[C@H](O)[C@H](n2cc(-c3cc(F)c(F)c(F)c3)nn2)[C@H]1O)C1(O)CCOCC1 (stereo partly drawn) [Example 2.41.126., (2R,3R,4S,5R,6S)-2-(Hydroxymethyl)-6-(((4-hydroxytetrahydro-2H-pyran-4-yl)(3-methylpyridin-2-yl)methyl)thio)-4-(4-(3,4,5-trifluorophenyl)-1H-1,2,3-triazol-1-yl)tetrahydro-2H-pyran-3,5-diol]",800,–,–,80,–
"Cc1cccnc1[C@@H](S[C@@H]1O[C@H](CO)[C@H](O)[C@H](n2cc(-c3cc(F)c(F)c(F)c3)nn2)[C@H]1O)C1(O)CCOCC1 [Example 2.41.126R., (2R,3R,4S,5R,6S)-2-(Hydroxymethyl)-6-(((R)-(4-hydroxytetrahydro-2H-pyran-4-yl)(3-methylpyridin-2-yl)methyl)thio)-4-(4-(3,4,5-trifluorophenyl)-1H-1,2,3-triazol-1-yl)tetrahydro-2H-pyran-3,5-diol]",700,–,–,30,–
"CC(C)c1ccccc1C(S[C@@H]1O[C@H](CO)[C@H](O)[C@H](n2cc(-c3cc(F)c(F)c(F)c3)nn2)[C@H]1O)C1(O)CCC(F)(F)CC1 (stereo partly drawn) [Example 2.44.105., (2S,3R,4S,5R,6R)-2-(((4,4-Difluoro-1-hydroxycyclohexyl)(2-isopropylphenyl)methyl)thio)-6-(hydroxymethyl)-4-(4-(3,4,5-trifluorophenyl)-1H-1,2,3-triazol-1-yl)tetrahydro-2H-pyran-3,5-diol [1,3-di-deoxy-1-((4,4-difluoro-1-hydroxy-cyclohexan-1-yl)-(2-(-isopropyl)phenyl)methyl-thio)-3-[4-(3,4,5-trifluorophenyl)-1H-1,2,3-triazol-1-yl]-β-D-galactopyranoside]]",80,–,140,–,–

# The remaining lines, values ahead:
IC50 (human Gal-1 (hGal-1)) [nM],IC50 (human Gal-3 (hGal-3); [1]) [nM],IC50 (human Gal-3 (hGal-3); [2]) [nM],IC50 (human Gal-3 (hGal-3); [3]) [nM],IC50 (human Gal-3 (hGal-3); [4]) [nM],Compound
800,–,–,–,60,"CO[C@@H]1[C@@H](n2cc(-c3cc(F)c(F)c(F)c3)nn2)[C@@H](O)[C@@H](CO)O[C@H]1S[C@H](c1ncccc1C)C1(O)CCOCC1 [Example 2.41.126R.I., (2R,3R,4S,5R,6S)-2-(Hydroxymethyl)-6-(((R)-(4-hydroxytetrahydro-2H-pyran-4-yl)(3-methylpyridin-2-yl)methyl)thio)-5-methoxy-4-(4-(3,4,5-trifluorophenyl)-1H-1,2,3-triazol-1-yl)tetrahydro-2H-pyran-3-ol]"
70400,–,–,2250,–,"Cc1cccnc1[C@H](S[C@@H]1O[C@H](CO)[C@H](O)[C@H](n2cc(-c3cc(F)c(F)c(F)c3)nn2)[C@H]1O)C1(O)CCOCC1 [Example 2.41.126S., (2R,3R,4S,5R,6S)-2-(Hydroxymethyl)-6-(((S)-(4-hydroxytetrahydro-2H-pyran-4-yl)(3-methylpyridin-2-yl)methyl)thio)-4-(4-(3,4,5-trifluorophenyl)-1H-1,2,3-triazol-1-yl)tetrahydro-2H-pyran-3,5-diol]"
1900,–,–,–,60,"CO[C@@H]1[C@@H](n2cc(-c3cc(F)c(F)c(F)c3)nn2)[C@@H](O)[C@@H](CO)O[C@H]1S[C@H](c1ccccc1C)[C@]1(O)CCOC(C)(C)C1 [Example 2.43.102RS.I., (2R,3R,4S,5R,6S)-6-(((R)-((S)-4-Hydroxy-2,2-dimethyltetrahydro-2H-pyran-4-yl)(o-tolyl)methyl)thio)-2-(hydroxymethyl)-5-methoxy-4-(4-(3,4,5-trifluorophenyl)-1H-1,2,3-triazol-1-yl)tetrahydro-2H-pyran-3-ol]"
40,–,60,–,–,"CC(C)c1ccccc1[C@@H](S[C@@H]1O[C@H](CO)[C@H](O)[C@H](n2cc(-c3cc(F)c(F)c(F)c3)nn2)[C@H]1O)C1(O)CCC(F)(F)CC1 [Example 2.44.105R., (2S,3R,4S,5R,6R)-2-(((R)-(4,4-Difluoro-1-hydroxycyclohexyl)(2-isopropylphenyl)methyl)thio)-6-(hydroxymethyl)-4-(4-(3,4,5-trifluorophenyl)-1H-1,2,3-triazol-1-yl)tetrahydro-2H-pyran-3,5-diol [1,3-di-deoxy-1-((4,4-difluoro-1-hydroxy-cyclohexan-1-yl)-(2-(-isopropyl)phenyl)methyl-(R)-thio)-3-[4-(3,4,5-trifluorophenyl)-1H-1,2,3-triazol-1-yl]-β-D-galactopyranoside]]"
150,320,–,–,–,"CO[C@@H]1[C@@H](n2cc(-c3cc(F)c(F)c(F)c3)nn2)[C@@H](O)[C@@H](CO)O[C@H]1S[C@H](c1ccccc1C(C)C)C1(O)CCC(F)(F)CC1 [Example 2.44.105R.I., (2R,3R,4S,5R,6S)-6-(((R)-(4,4-Difluoro-1-hydroxycyclohexyl)(2-isopropylphenyl)methyl)thio)-2-(hydroxymethyl)-5-methoxy-4-(4-(3,4,5-trifluorophenyl)-1H-1,2,3-triazol-1-yl)tetrahydro-2H-pyran-3-ol]"
520,–,950,–,–,"CC(C)c1ccccc1[C@H](S[C@@H]1O[C@H](CO)[C@H](O)[C@H](n2cc(-c3cc(F)c(F)c(F)c3)nn2)[C@H]1O)C1(O)CCC(F)(F)CC1 [Example 2.44.105S., (2S,3R,4S,5R,6R)-2-(((S)-(4,4-Difluoro-1-hydroxycyclohexyl)(2-isopropylphenyl)methyl)thio)-6-(hydroxymethyl)-4-(4-(3,4,5-trifluorophenyl)-1H-1,2,3-triazol-1-yl)tetrahydro-2H-pyran-3,5-diol]"

# Source: patent US12404295B2, “(Hetero)aryl-methyl-thio-beta-D-galactopyranoside derivatives” (Idorsia Pharmaceuticals Ltd, priority 2019, dated 2025)
